Source: patent US20260285869A1, “COMPOUNDS, COMPOSITIONS AND METHODS THEREOF” (HEPAITECH (BEIJING) BIOPHARMA TECHNOLOGY CO., LTD., priority 2023, published 2026)

Target: T1, human MRGPRX4 (Homo sapiens, UniProt Q96LA9)
T1 construct: expressed in transfected cells
Experiment: MRGPRX4 antagonist calcium assay (FLIPR, Fluo-8) in HEK293T cells stably expressing human MRGPRX4
Format: cell-based
Conditions: antagonist mode against 0.2 μM deoxycholic acid-3-phosphoric acid; for inhibition at 0.5 µM / inhibition at 2 µM: HEK-293T, HEK293T cells expressing human MRGPRX4; for inhibition at 0.5 µM: compound at 500 nM; for inhibition at 2 µM: compound at 2 μM; for IC50: top conc. 30 μM, ten 3-fold serial dilutions, class symbols
Method: HEK293T cells stably expressing human MRGPRX4 were cultured in DMEM medium supplements with 10% FBS, 100 U/mL penicillin-streptomycin, 20 mM HEPES and 1 μg/mL puromycin at 37° C. with 5% (v/v) CO2. One day before test, the cells were detached using TrypLE™ Express and counted using cell counter. In a 384-well plate cells were seeded at a density of 20,000 cells/well in 20 μL/well planting medium (DMEM medium supplements with 5% FBS, 100 U/mL penicillin-streptomycin and 20 mM HEPES), and incubated overnight at 37° C. with 5% (v/v) CO2. On the day of experiments, the dye solution, prepared following the manufacture's instruction of the Screen Quest™ Fluo-8 No Wash Calcium Assay Kit, was added to each well (20 μL/well) of the cell plate. The cell plate was incubated at 25° C. for 1 hour. Test compounds in different doses were transferred to the cell plate by FLIPR and the plate was kept in the dark at 25° C. for 30 minutes. The agonist solution, 0.2 μM of deoxycholic acid-3-phosphoric acid in assay buffer, was added to each well of the plate. The plate was read for 160 sec with 1 sec interval to obtain data of antagonist mode in FLIPR. […] Those skilled in the art appreciate that IC50 of various compounds can be assessed in accordance with the present disclosure.

T1 sequence (Q96LA9 whole entry): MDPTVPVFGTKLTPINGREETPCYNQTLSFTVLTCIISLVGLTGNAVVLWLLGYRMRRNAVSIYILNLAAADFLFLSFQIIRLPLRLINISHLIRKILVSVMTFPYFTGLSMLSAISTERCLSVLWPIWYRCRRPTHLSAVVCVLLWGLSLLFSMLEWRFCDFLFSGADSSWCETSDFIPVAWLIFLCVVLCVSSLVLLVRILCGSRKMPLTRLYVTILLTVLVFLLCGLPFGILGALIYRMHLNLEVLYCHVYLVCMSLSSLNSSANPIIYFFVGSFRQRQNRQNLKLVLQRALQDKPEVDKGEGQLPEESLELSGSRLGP

Row | inhibition at 0.5 µM | inhibition at 2 µM | IC50 | SMILES
1 | 13% | – | – | FC(F)(F)c1cccc(Cn2ccc3c(-c4nnn[nH]4)ncnc32)c1Cl [Compound 47]
2 | – | 34% | 0.5 to 5 µM | O=C(O)c1cccc2c1ccn2Cc1ccc(C(F)(F)F)cc1 [Compound 3]
3 | – | 101% | < 0.5 µM | O=C(O)c1cccc2c1ccn2Cc1cccc(C(F)(F)F)c1Cl [Compound 12]
4 | 4.3% | – | – | FC(F)(F)c1ccc(Cn2ccc3c(-c4nnn[nH]4)ncnc32)cc1Cl [Compound 48]
5 | – | 100% | < 0.5 µM | FC(F)(F)c1ccc(Cn2ccc3c(-c4nnn[nH]4)cccc32)c(Br)c1 [Compound 45]
6 | 36% | – | – | NC(=O)c1c(F)ccc2c1ccn2Cc1cccc(C(F)(F)F)c1Cl [Compound 55]
7 | 5.3% | – | – | CC(c1ccc(C(F)(F)F)cc1)n1ccc2c(C(=O)O)cccc21 (centres unmarked) [Compound 15]
8 | 90% | – | < 0.5 µM | O=C(O)c1cccc2c1ccn2Cc1ccc(Cl)c(C(F)(F)F)c1 [Compound 10]
9 | – | 18% | – | O=C(O)c1cccc2c1CCN2Cc1ccc(C(F)(F)F)cc1Cl [Compound 6]
10 | – | 96% | < 0.5 µM | Fc1cc(C(F)(F)F)ccc1Cn1ccc2c(-c3nnn[nH]3)cccc21 [Compound 43]
11 | – | 97% | 0.5 to 5 µM | Cc1cn(Cc2ccc(C(F)(F)F)cc2Cl)c2cccc(C(=O)O)c12 [Compound 20]
12 | – | 5.1% | – | O=C(O)c1cccc2c1ccn2Cc1cc(C(F)(F)F)ccc1Cl [Compound 35]
13 | 27% | – | – | O=C(O)c1ncnc2c1ccn2Cc1cccc(C(F)(F)F)c1Cl [Compound 13]
14 | 64% | – | < 0.5 µM | O=C(O)c1cccc2c1ccn2Cc1ccc(OC(F)(F)F)c(Cl)c1 [Compound 8]
15 | 99.9% | – | < 0.5 µM | Fc1ccc2c(ccn2Cc2ccc(C(F)(F)F)c(Cl)c2)c1-c1nnn[nH]1 [Compound 51]
16 | 20% | – | – | O=C(O)c1cccc2c1ccn2Cc1ccc(OC(F)(F)F)cc1 [Compound 7]
17 | – | – | > 5 µM | O=C(O)c1cccc2c1ccn2CCc1ccc(C(F)(F)F)cc1Cl [Compound 25]
18 | -7.6% | – | – | NC(=O)c1cccc2c1ccn2Cc1cccc(C(F)(F)F)c1Cl [Compound 53]
19 | 86% | – | < 0.5 µM | O=C(O)c1cc(F)cc2c1ccn2Cc1cccc(C(F)(F)F)c1Cl [Compound 28]
20 | – | -13% | – | O=C(O)c1cccc2c1ccn2Cc1c(Cl)cccc1Cl [Compound 32]
21 | 1.6% | – | – | O=C(O)c1cc(-c2ccccc2)cc2c1ccn2Cc1cccc(C(F)(F)F)c1Cl [Compound 39]
22 | 78% | – | < 0.5 µM | O=C(O)c1c(F)ccc2c1ccn2Cc1ccc(C(F)(F)F)c(Cl)c1 [Compound 1]
23 | – | 99.7% | < 0.5 µM | O=C(O)c1cccc2c1ccn2Cc1ccc(C(F)(F)F)c(Cl)c1 [Compound 19, 1-(3-chloro-4-(trifluoromethyl)benzyl)-1H-indole-4-carboxylic acid]
24 | 12% | – | – | O=C(O)c1ncnc2c1ccn2Cc1ccc(C(F)(F)F)c(Cl)c1 [Compound 14]
25 | – | 98% | 0.5 to 5 µM | O=C(O)c1cccc2c1ccn2Cc1ccc(C(F)(F)F)cc1Br [Compound 33]
26 | – | 52% | – | Cc1cc2c(C(=O)O)cccc2n1Cc1ccc(C(F)(F)F)cc1Cl [Compound 21]
27 | 44% | – | – | O=C(O)c1cc(C2CC2)cc2c1ccn2Cc1cccc(C(F)(F)F)c1Cl [Compound 38]

Row | inhibition at 0.5 µM | inhibition at 2 µM | IC50 | SMILES
28 | 97% | – | < 0.5 µM | O=C(O)c1cc(Br)cc2c1ccn2Cc1cccc(C(F)(F)F)c1Cl [Compound 30]
29 | – | 65% | 0.5 to 5 µM | FC(F)(F)c1cccc(Cn2ccc3c(-c4nnn[nH]4)cccc32)c1Cl [Compound 44]
30 | – | 72% | – | O=C(O)c1cccc2c1cnn2Cc1ccc(C(F)(F)F)cc1Cl [Compound 27]
31 | – | -6.2% | – | O=C(O)c1cccc2c1ccn2Cc1c(Cl)cc(C(F)(F)F)cc1Cl [Compound 31]
32 | – | 7.2% | – | Cc1cc2c(C(=O)O)cccc2n1Cc1cc(C(F)(F)F)ccc1Cl [Compound 18]
33 | – | 94% | < 0.5 µM | O=C(O)c1cccc2c1ccn2Cc1ccc(C(F)(F)F)cc1F [Compound 16]
34 | – | 40% | > 5 µM | O=C(O)c1cccc2c1CCN2Cc1ccc(C(F)(F)F)cc1 [Compound 5]
35 | -11.2% | – | – | Fc1cc(-c2nnn[nH]2)c2ccn(Cc3cccc(C(F)(F)F)c3Cl)c2c1 [Compound 50]
36 | – | 3.6% | – | Cc1cn(Cc2cc(C(F)(F)F)ccc2Cl)c2cccc(C(=O)O)c12 [Compound 17]
37 | – | 29% | – | O=C(O)c1cccc2c1ccn2Cc1cc(Cl)cc(C(F)(F)F)c1 [Compound 23]
38 | 20% | – | – | O=C(O)c1cccc2c1ccn2Cc1cccc(C(F)(F)F)c1F [Compound 24]
39 | 11% | – | – | NC(=O)c1cccc2c1ccn2Cc1ccc(C(F)(F)F)c(Cl)c1 [Compound 54]
40 | – | 100% | < 0.5 µM | FC(F)(F)c1ccc(Cn2ccc3c(-c4nnn[nH]4)cccc32)c(Cl)c1 [Compound 42]
41 | 98% | – | < 0.5 µM | O=C(O)c1c(F)ccc2c1ccn2Cc1cccc(C(F)(F)F)c1Cl [Compound 2]
42 | – | 81% | – | FC(F)(F)c1ccc(Cn2ccc3c(-c4nnn[nH]4)cccc32)cc1 [Compound 41]
43 | 4.9% | – | – | O=C(O)c1ccc(Cl)c2c1ccn2Cc1cccc(C(F)(F)F)c1Cl [Compound 40]
44 | – | 0.4% | – | O=C(O)c1cccc2c1ccn2Cc1ccccc1Cl [Compound 36]
45 | – | -2.4% | – | O=C(O)c1cccc2c1cnn2Cc1cc(C(F)(F)F)ccc1Cl [Compound 34]
46 | -1.2% | – | – | O=C(O)c1cccc2c1ccn2Cc1ccccc1C(F)(F)F [Compound 11]
47 | – | 5.5% | – | O=C(O)c1cccc2c1ccn2CCc1cc(C(F)(F)F)ccc1Cl [Compound 37]
48 | – | 91% | < 0.5 µM | O=C(O)c1cccc2c1ccn2Cc1ccc(C(F)(F)F)cc1Cl [Compound 4]
49 | 76% | – | < 0.5 µM | O=C(O)c1cc(Cl)cc2c1ccn2Cc1cccc(C(F)(F)F)c1Cl [Compound 29]
50 | -1.6% | – | – | O=C(O)c1cccc2c1ccn2Cc1cccc(C(F)(F)F)c1 [Compound 9]
51 | – | 49% | – | O=C(O)c1cccc2c1ncn2Cc1ccc(C(F)(F)F)cc1Cl [Compound 26]
52 | – | 2.4% | – | O=C(O)c1cccc2c1ccn2Cc1c(Cl)cccc1C(F)(F)F [Compound 22]
53 | – | 99.9% | < 0.5 µM | FC(F)(F)c1ccc(Cn2ccc3c(-c4nnn[nH]4)cccc32)cc1Cl [Compound 46]
